Experimental data published in patent US20240189408A1, “COMPOSITIONS AND METHODS FOR REDUCING METHANE EMISSIONS IN RUMINANT POPULATIONS” (Arkea Bio Corp., priority 2022, published 2024).
Like-named read-outs stand apart in the source and are kept apart here.

Columns and labels:
[1] = system: methane production in ruminants; conditions: cited from earlier work
[2] = system: rumen methanogens; conditions: cited from earlier work
[3] = 3-NOP to adsorbent ratio study; type: physicochemical; conditions: 24 hr, HPLC
Description: Optimal loading of 3-NOP onto adsorbents was determined by varying ratios of 3-NOP to adsorbent. 3-NOP and adsorbent were speed mixed at 2000 rpm for 1 min at the following ratios by weight: 1:1.5, 1:2, 1:2.5. The adsorbed 3-NOP powder mixture was then placed in distilled water at 1% 3-NOP loading. The solution was allowed to equilibrate for 24 hr and then an aliquot was taken for HPLC to determine the reduction in 3-NOP concentration.

[4] = LNP encapsulation efficiency, RiboGreen assay; type: physicochemical; conditions: mRNA LNPs of Table 18
Description: (§1) To prepare lipid nanoparticles (LNPs), the mRNA stocks were thawed on ice. Nucleic acid concentrations were validated by absorbance at 260 nm using a NanoDrop. The mRNAs were then diluted to a final concentration of 0.35 mg/mL mRNA in Precision Nanosystem's dilution buffer. 10 mL of the dilute mRNAs were loaded into separate Luer lock syringes and all bubbles were removed by gentle tapping. A NanoAssemblr Ignite NxGen Cartridge was loaded into the cartridge slot of the Ignite instrument (FIG. 8A, 801) and one mRNA syringe was attached to the aqueous inlet of the cartridge. 3.3 mL of Genvoy-ILM reagent was loaded into a separate Luer lock syringes and all bubbles were removed by gentle tapping. The Genvoy-ILM syringe was then attached to the organic inlet of the cartridge. LNPs were then generated and collected into a 15 mL conical tube. The process was repeated for the remaining two mRNAs and for a buffer only LNP control (empty). Immediately after LNPs were generated, the samples were loaded into 10K dialysis cartridges, submerged into 1×DPBS (Ca^2+ and Mg^2+-free) to reduce the ethanol concentration to <0.5%. After dialysis the LNPs were recovered from the dialysis cartridges and sterile filtered at 0.2 um. Size and polydispersity (FIG. 8A, 802) were measured using a Malvern Panalytical DLS by diluting 40 uL of LNPs into 360 uL of 1×DPBS. […] Encapsulation efficiency was measured using a RiboGreen assay following Precision Nanosystems recommended protocol using a BioTek Synergy H1 Plate Reader. The resultant encapsulation efficiencies are shown in Table 14, with an average of ˜85%.
(§2) To prepare lipid nanoparticles (LNPs), the mRNA stocks were thawed on ice. Nucleic acid concentrations were validated by absorbance at 260 nm using a NanoDrop. The mRNAs were then diluted to a final concentration of 0.35 mg/mL mRNA in Precision Nanosystem's dilution buffer. 10 mL of the dilute mRNAs were loaded into separate Luer lock syringes and all bubbles were removed by gentle tapping. A NanoAssemblr Ignite NxGen Cartridge was loaded into the cartridge slot of the Ignite instrument and one mRNA syringe was attached to the aqueous inlet of the cartridge. 3.3 mL of Genvoy-ILM reagent was loaded into a separate Luer lock syringes and all bubbles were removed by gentle tapping. The Genvoy-LM syringe was then attached to the organic inlet of the cartridge. LNPs were then generated and collected into a 15 mL conical tube. The process was repeated for the remaining mRNAs and for a buffer only LNP control (empty). Immediately after LNPs were generated, the samples were loaded into 10K dialysis cartridges, submerged into Ix DPBS (Ca^2+ and Mg^2+-free) to reduce the ethanol concentration to <0.5%. After dialysis the LNPs were recovered from the dialysis cartridges and sterile filtered at 0.2 um. Size and polydispersity (FIG. 12 and FIG. 13) were measured using a Malvern Panalytical DLS by diluting 40 uL of LNPs into 360 uL of 1×DPBS. […] Encapsulation efficiency was measured using a RiboGreen assay following Precision Nanosystems recommended protocol using a BioTek Synergy H1 Plate Reader. The resultant encapsulation efficiencies are shown in Table 18, with an average of ˜60%.
(§3) To prepare lipid nanoparticles (LNPs), the mRNA stocks are thawed on ice. Nucleic acid concentrations are validated by absorbance at 260 nm using a NanoDrop. The mRNAs are then diluted to a final concentration of 0.35 mg/mL mRNA in Precision Nanosystem's dilution buffer. 10 mL of the dilute mRNAs are loaded into separate Luer lock syringes and all bubbles are removed by gentle tapping. A NanoAssemblr Ignite NxGen Cartridge is loaded into the cartridge slot of the Ignite instrument and one mRNA syringe is attached to the aqueous inlet of the cartridge. 3.3 mL of Genvoy-ILM reagent is loaded into a separate Luer lock syringes and all bubbles are removed by gentle tapping. The Genvoy-ILM syringe is then attached to the organic inlet of the cartridge. […]

[5] = LNP size and polydispersity by DLS (Malvern Panalytical); type: physicochemical; conditions: mRNA LNPs of Table 18; for PDI: LNP polydispersity; for Z-avg.: LNP size
Description: as §1, §2, §3

[6] = 3-NOP:Adsorbent 1:1.5, distilled water at 1% 3-NOP loading
[7] = 3-NOP:Adsorbent 1:2, distilled water at 1% 3-NOP loading
[8] = 3-NOP:Adsorbent 1:2.5, distilled water at 1% 3-NOP loading
[9] = beef cattle, fed at […] of DM intake

## Oc1ccc(C=Cc2cc(O)cc(O)c2)cc1 [resveratrol]
[1]; 25 mg, high-concentrate diets
  Addition amount; maximum methane suppression amount: high-concentrate diets; 41%
[1]; 25 mg, high-forage diets
  Addition amount; maximum methane suppression amount: 25 mg, high-forage diets; 60%;

## CC[C@@]1([C@@H]2O[C@@H]([C@H]3O[C@@](O)(CO)[C@H](C)C[C@@H]3C)C[C@@H]2C)CC[C@H]([C@]2(C)CC[C@]3(C[C@H](O)[C@@H](C)[C@@H]([C@@H](C)[C@@H](OC)[C@H](C)C(=O)O)O3)O2)O1 [monensin]
[1]; 10-15 ppm
  CH4 suppression: no CH4 suppression was observed
[1]; fed at 24-35 mg/kg diet
  lowering of CH4 production (g/kg DM intake): up to 10%
[2]; tropical cattle, 60 mg/day/cow
  CH4 production: did not lower CH4 production
[2]; tropical cattle, 250 mg/day/cow, DM intake lowered
  decrease of CH4 production: about 30%

## ClC(Cl)Cl [chloroform]
[2]; drenching to cattle
  duration of substantial inhibition of methanogenesis: up to 32 days

## CC(CO)[N+](=O)[O-] (stereo not drawn) [2-nitropropanol]
[1]; 10 mmol/L
  Addition amount; maximum methane suppression amount: 41.7% (NPOH)
[2]; steers
  lowering of CH4 production: 37%

## O=C(O)/C=C/c1ccc(O)cc1 [p-coumaric acid]
[1]; 12 mM
  Addition amount; maximum methane suppression amount: p-coumaric acid; 28.33%

## N[C@@H](CCC(=O)O)C(=O)O [Glutamic acid]
[3]; [6]
  Average Integrated Area of 3-NOP in solution: 2445.9
[3]; [7]
  Average Integrated Area of 3-NOP in solution: 2452.5
[3]; [8]
  Average Integrated Area of 3-NOP in solution: 2446.3

## O=[N+]([O-])O [Nitrate]
[1]; 5 mM (Liu et al., 2017)
  Addition amount; maximum methane suppression amount: 5 mM 43.26%
[1]; 5 mmol/L (Wu et al., 2019)
  Addition amount; maximum methane suppression amount: 5 mmol/L; 32.92%
[1]; 20 mg/g dry matter (Alvarez-Hess et al., 2019)
  Addition amount; maximum methane suppression amount: 20 mg/g dry matter; 21%

## O=[N+]([O-])CCO [2-nitroethanol]
[1]; 10 mmol/L
  Addition amount; maximum methane suppression amount: 96.7% (NEOH),

## N=C(N)NCCC[C@H](N)C(=O)O [Arginine]
[3]; [6]
  Average Integrated Area of 3-NOP in solution: 2406.0
[3]; [7]
  Average Integrated Area of 3-NOP in solution: 2372.8
[3]; [8]
  Average Integrated Area of 3-NOP in solution: 2435.2

## ClCBr [BCM, bromochloromethane]
[2]; steers fed grain-based diets
  toxicity or residues in meat: no signs of toxicity or residues in meat

## O=C(O)CC(O)C(=O)O (stereo not drawn) [Malate]
[2]; [9]
  decrease of CH4 production: 16%
  reduction of CH4 per unit of DM intake: 9%

## O=C(O)/C=C/c1ccc(O)c(O)c1 [Caffeic acid]
[1]; 12 mM
  Addition amount; maximum methane suppression amount: 12 mM, Caffeic acid; 37.58%;

B1: ARK012: mRNA: SP + WP_012956721.1 + STOP; SEQ ID NO: 16686 (nucleic acid)
chain: ATGTTCGTGTTCCTCGTGCTCCTGCCCCTCGTCTCCAGCCAGTGCGTGGGGTCCATAGGGGCTGCTTCTATGGAGTTCTGTTTTGATGTTTTCAAGGAACTGAAGGTTCACCATGCTAACGAGAACATCTTTTACTGTCCAATAGCCATCATGAGTGCGCTTGCTATGGTTTATTTGGGTGCAAAAGATTCTACTCGCACTCAGATTAATAAGGTCGTTAGATTCGACAAGCTTCCAGGGTTTGGAGACAGTATTGAGGCCCAATGTGGAACGTCAGTCAACGTCCATTCTTCTCTGCGGGACATTCTCAACCAAATAACGAAGCCAAACGACGTGTATTCCTTCTCACTCGCGTCACGGCTGTATGCTGAAGAAAGGTATCCTATCTTGCCAGAATATCTCCAGTGCGTCAAGGAGTTGTATCGAGGCGGACTGGAACCGATCAACTTTCAGACTGCAGCCGACCAGGCCCGCGAACTGATCAACAGCTGGGTCGAGTCTCAGACCAATGGGATCATACGCAATGTGTTGCAACCGAGTAGTGTCGACTCTCAGACGGCTATGGTCTTGGTGAACGCTATAGTCTTCAAAGGTCTGTGGGAGAAGACCTTCAAGGATGAAGACACACAAGCGATGCCATTCAGAGTCACCGAACAAGAAAGCAAACCCGTCCAAATGATGTACCAAATTGGGCTTTTTCGGGTGGCCTCTATGGCCTCTGAGAAAATGAAAATATTGGAACTGCCCTTCGCCAGCGGCACAATGAGTATGTTGGTCCTTCTTCCAGATGAAGTCTCAGGTCTCGAACAGCTTGAGTCTATCATTAACTTTGAGAAACTCACTGAATGGACTTCTTCCAATGTGATGGAAGAACGAAAAATCAAAGTCTACCTGCCCCGAATGAAGATGGAAGAGAAATATAATTTGACATCAGTTCTGATGGCCATGGGAATCACAGACGTGTTTTCATCCTCTGCGAATCTGTCTGGCATATCTTCCGCAGAATCTCTCAAGATCAGTCAAGCCGTCCACGCGGCCCATGCTGAGATAAATGAGGCGGGCAGAGAGGTGGTGGGGTCCGCCGAAGCTGGAGTCGACGCAGCTTCTGTCAGTGAAGAATTTAGGGCCGATCATCCTTTCCTGTTCTGCATAAAGCACATAGCTACGAACGCTGTGCTTTTCTTTGGCAGATGCGTTTCTCCACCCTGGTACATCTGGCTGGGCTTCATCGCAGGACTGATCGCCATCGTCATGGTCACCATAATGCTCTGTTGCATGACCTCCTGCTGTAGCTGCCTGAAAGGCTGTTGCAGCTGCGGGAGCTGCTGCAAATTCGACGAAGACGATAGCGAACCTGTGCTCAAAGGGGTGAAGTTGCATTACACATAGTGA
modifications: listed as DNA
[4]
  Encapsulation efficiency: 49%
[5]
  PDI: 0.100
  Z-avg.: 78.82 nm·days

B2: ARK013: mRNA: SP + mru0143 + STOP; SEQ ID NO: 16687 (nucleic acid)
chain: ATGTTCGTGTTCCTCGTGCTCCTGCCCCTCGTCTCCAGCCAGTGCGTGTACCTCATGACACTCCCCCTGGACGGACTCGGGCACCCCTTCCCCCTGCCATGA
modifications: listed as DNA, chemistry not fully specified
[4]
  Encapsulation efficiency: 60%
[5]
  PDI: 0.1841
  Z-avg.: 78.82 nm·days

B3: ARK001: mRNA: SP + WP_004031278.1 (Methanobacterium formicicum) + TM/C; SEQ ID NO: 16676 (nucleic acid)
chain: ATGTTCGTGTTCCTCGTGCTCCTGCCCCTCGTCTCCAGCCAGTGCGTGTACCTCATGACACTGAGCCTGCCAGGGTTCGCACATCCCTTCGCACTCCCCCCCTGGTACATCTGGCTGGGCTTCATCGCAGGACTGATCGCCATCGTCATGGTCACCATAATGCTCTGTTGCATGACCTCCTGCTGTAGCTGCCTGAAAGGCTGTTGCAGCTGCGGGAGCTGCTGCAAATTCGACGAAGACGATAGCGAACCTGTGCTCAAAGGGGTGAAGTTGCATTACACATAGTGA
modifications: listed as DNA
[4]
  Encapsulation efficiency: 51%
[5]
  PDI: 0.086
  Z-avg.: 78.82 nm·days

B4: ARK002: mRNA: SP + WP_012956721.1 (Methanobrevibacter ruminantium) + TM/C; SEQ ID NO: 16677 (nucleic acid)
chain: ATGTTCGTGTTCCTCGTGCTCCTGCCCCTCGTCTCCAGCCAGTGCGTGTACCTCATGACACTCCCCCTGGACGGACTCGGGCACCCCTTCCCCCTGCCACCCTGGTACATCTGGCTGGGCTTCATCGCAGGACTGATCGCCATCGTCATGGTCACCATAATGCTCTGTTGCATGACCTCCTGCTGTAGCTGCCTGAAAGGCTGTTGCAGCTGCGGGAGCTGCTGCAAATTCGACGAAGACGATAGCGAACCTGTGCTCAAAGGGGTGAAGTTGCATTACACATAGTGA
modifications: listed as DNA
[4]
  Encapsulation efficiency: 51%
[5]
  PDI: 0.108
  Z-avg.: 78.82 nm·days
